Measurements as given in patent publication US20230002397A1, “SMALL MOLECULE DEGRADERS OF HELIOS AND METODS OF USE” (DANA-FARBER CANCER INSTITUTE, INC., priority 2019, published 2023).
Like-named read-outs stand apart in the source and are kept apart here.

Target: T1, IKZF2 (Homo sapiens, UniProt Q96SW2+Q9UKS7)
T1 construct: CRISPR/Cas9—mediated insertion of the HiBiT peptide tag (Promega™) to the N-terminus of the IKZF2 gene locus; endogenous in cells; host or cells: MOLT4 cells, with CRISPR/Cas9 knock-in of HiBiT at the endogenous IKZF2 locus
Assay: HiBit-IKZF2 assay (HiBiT-Helios degradation in MOLT4 cells)
Type: cell-based
Conditions: for Dmax: 10 μM to 0.00026 μM; for DC50: concentration at which 50% of HiBiT-Helios degradation was achieved
Method: The HiBiT protein tagging system was applied to MOLT4 cells via a CRISPR/Cas9—mediated insertion of the HiBiT peptide tag (Promega™) to the N-terminus of the IKZF2 gene locus (Neon™ Transfection System). The resulting HiBiT-Helios stable cell line was treated with the following compounds in triplicates following a 13-point concentration scheme ranging from 10 μM to 0.00026 μM. At the indicated timepoints, the Nano-Glo® HiBiT Lytic Detection System (Promega™) was utilized for detecting bioluminescence of the HiBiT tag in treated cells: abundance of the tag is proportionate to the level of luminescence. Following normalization to DMSO, dose-response curves were plotted (GraphPad Prism) to determine the concentration points at which 50% of HiBiT-Helios degradation was achieved by each compound. The extent of degradation (range of luminescence) from the highest to lowest concentration points was calculated to determine the Dmax.

[1] = MOLT-4, extent of degradation from highest to lowest concentration, read-out: Dmax

T1 sequence (Q9UKS7 whole entry): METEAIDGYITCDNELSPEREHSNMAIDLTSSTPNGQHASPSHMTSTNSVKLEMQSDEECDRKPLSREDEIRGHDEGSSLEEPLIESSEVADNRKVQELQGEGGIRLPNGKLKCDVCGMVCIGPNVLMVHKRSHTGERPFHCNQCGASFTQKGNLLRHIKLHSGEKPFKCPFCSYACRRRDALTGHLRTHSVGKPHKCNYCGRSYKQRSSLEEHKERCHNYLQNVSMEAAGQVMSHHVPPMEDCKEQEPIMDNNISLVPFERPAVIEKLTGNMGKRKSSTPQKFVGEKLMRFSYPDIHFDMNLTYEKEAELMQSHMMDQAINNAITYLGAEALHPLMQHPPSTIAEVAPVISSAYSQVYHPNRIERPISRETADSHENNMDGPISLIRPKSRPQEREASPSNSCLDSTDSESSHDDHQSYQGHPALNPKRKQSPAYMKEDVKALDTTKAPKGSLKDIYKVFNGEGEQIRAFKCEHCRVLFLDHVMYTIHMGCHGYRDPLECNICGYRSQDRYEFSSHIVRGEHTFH
T1 sequence (Q96SW2 whole entry): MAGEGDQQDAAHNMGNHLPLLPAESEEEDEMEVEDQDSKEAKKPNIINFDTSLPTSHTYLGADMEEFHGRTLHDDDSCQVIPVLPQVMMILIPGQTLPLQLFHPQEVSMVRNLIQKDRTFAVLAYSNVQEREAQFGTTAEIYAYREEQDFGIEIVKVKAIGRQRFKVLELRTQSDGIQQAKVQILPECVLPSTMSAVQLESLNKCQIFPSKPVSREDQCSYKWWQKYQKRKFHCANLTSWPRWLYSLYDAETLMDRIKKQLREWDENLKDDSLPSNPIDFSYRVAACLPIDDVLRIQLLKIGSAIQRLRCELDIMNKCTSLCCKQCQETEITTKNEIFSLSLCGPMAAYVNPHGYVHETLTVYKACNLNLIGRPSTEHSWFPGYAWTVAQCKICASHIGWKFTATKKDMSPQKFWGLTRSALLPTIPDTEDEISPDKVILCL
T1 sequence (Q16531 whole entry partner): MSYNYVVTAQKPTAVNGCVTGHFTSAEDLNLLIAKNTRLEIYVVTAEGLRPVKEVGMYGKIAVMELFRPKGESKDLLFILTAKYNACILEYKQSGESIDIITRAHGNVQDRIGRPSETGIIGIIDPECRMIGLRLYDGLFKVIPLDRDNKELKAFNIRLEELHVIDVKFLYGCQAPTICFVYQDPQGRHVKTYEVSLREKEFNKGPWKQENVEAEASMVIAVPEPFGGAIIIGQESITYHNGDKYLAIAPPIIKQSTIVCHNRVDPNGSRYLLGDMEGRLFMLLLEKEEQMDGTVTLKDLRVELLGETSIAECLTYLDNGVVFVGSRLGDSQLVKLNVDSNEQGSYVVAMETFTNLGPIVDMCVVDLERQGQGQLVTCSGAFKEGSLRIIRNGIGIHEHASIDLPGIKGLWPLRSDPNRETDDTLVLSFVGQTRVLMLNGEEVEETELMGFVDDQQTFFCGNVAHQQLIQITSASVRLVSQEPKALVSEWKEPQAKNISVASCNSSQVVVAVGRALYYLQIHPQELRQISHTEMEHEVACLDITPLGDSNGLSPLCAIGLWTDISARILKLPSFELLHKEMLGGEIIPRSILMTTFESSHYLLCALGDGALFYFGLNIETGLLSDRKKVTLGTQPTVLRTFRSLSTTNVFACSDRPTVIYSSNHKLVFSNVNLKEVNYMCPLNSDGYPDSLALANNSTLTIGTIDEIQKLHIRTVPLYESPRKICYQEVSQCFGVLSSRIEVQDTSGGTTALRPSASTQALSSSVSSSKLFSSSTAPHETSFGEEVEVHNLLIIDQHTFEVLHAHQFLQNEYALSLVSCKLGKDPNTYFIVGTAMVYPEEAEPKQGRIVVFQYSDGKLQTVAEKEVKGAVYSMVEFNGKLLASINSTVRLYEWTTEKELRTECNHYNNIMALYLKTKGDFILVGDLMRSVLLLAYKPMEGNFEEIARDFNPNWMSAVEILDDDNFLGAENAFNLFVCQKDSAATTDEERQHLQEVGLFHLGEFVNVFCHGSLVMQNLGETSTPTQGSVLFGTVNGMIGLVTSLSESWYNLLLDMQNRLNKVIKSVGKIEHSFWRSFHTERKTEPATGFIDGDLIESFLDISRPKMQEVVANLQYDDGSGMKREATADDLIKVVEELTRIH

| SMILES | Dmax [1] [%] | DC50 [nM] | Dmax (extent of degradation from highest to lowest concentration) |
| --- | --- | --- | --- |
| Cc1ccc(CN2CCC(O)(c3ccc4c(c3)CN(C3CCC(=O)NC3=O)C4=O)CC2)cc1 (stereo not shown) [Compound 266] | > 70 | < 10 | – |
| N#Cc1ccc(CN2CCC(O)(c3ccc4c(c3)CN(C3CCC(=O)NC3=O)C4=O)CC2)cc1 (stereo not shown) [Compound 239] | > 70 | < 10 | – |
| O=C1CCC(N2Cc3cc(C4CCN(Cc5ccc6c(c5)C(=O)N(c5cccc(F)c5)C6)CC4)ccc3C2=O)C(=O)N1 (stereo not shown) [Compound 175] | 50 to 70 | < 10 | – |
| O=C1CCC(N2Cc3cc(C4CCN(Cc5ccc6c(c5)C(=O)N(c5ncccn5)C6)CC4)ccc3C2=O)C(=O)N1 (stereo not shown) [Compound 178] | 30 to 50 | 10 to 30 | – |
| Cc1ccccc1N1Cc2ccc(CN3CCC(c4ccc5c(c4)CN(C4CCC(=O)NC4=O)C5=O)CC3)cc2C1=O (stereo not shown) [Compound 214] | 50 to 70 | 10 to 30 | – |
| O=C1CCC(N2Cc3cc(C4CCN(Cc5cccc(S(=O)(=O)N6CC7C(C6)C7(F)F)c5)CC4)ccc3C2=O)C(=O)N1 (stereo not shown) [Compound 59] | 50 to 70 | < 10 | – |
| Cc1ccccc1CN1CCC(O)(c2ccc3c(c2)CN(C2CCC(=O)NC2=O)C3=O)CC1 (stereo not shown) [Compound 265] | > 70 | < 10 | – |
| O=C1CCC(N2Cc3cc(C4(O)CCN(Cc5csc(-c6ccccc6)n5)CC4)ccc3C2=O)C(=O)N1 (stereo not shown) [Compound 33] | > 70 | < 10 | – |
| O=C1CCC(N2Cc3cc(C4CCN(Cc5ccccc5C(=O)Nc5ccccc5)CC4)ccc3C2=O)C(=O)N1 (stereo not shown) [Compound 144] | 50 to 70 | 10 to 30 | – |
| O=C1CCC(N2Cc3cc(C4(O)CCN(Cc5cc(F)cc(F)c5)CC4)ccc3C2=O)C(=O)N1 (stereo not shown) [Compound 205] | > 70 | < 10 | – |
| CN(c1cccc(CN2CCC(c3ccc4c(c3)CN(C3CCC(=O)NC3=O)C4=O)CC2)c1)c1ncccn1 (stereo not shown) [Compound 232] | 50 to 70 | 10 to 30 | – |
| O=C1CCC(N2Cc3cc(C4(O)CCN(Cc5c(F)cccc5F)CC4)ccc3C2=O)C(=O)N1 (stereo not shown) [Compound 245] | 50 to 70 | < 10 | – |
| O=C1CCC(N2Cc3cc(C4(O)CCN(Cc5cccc(F)c5F)CC4)ccc3C2=O)C(=O)N1 (stereo not shown) [Compound 243] | > 70 | < 10 | – |
| O=C1CCC(N2Cc3cc(C4CCN(Cc5ccccc5C(=O)N5CC6C(C5)C6(F)F)CC4)ccc3C2=O)C(=O)N1 (stereo not shown) [Compound 111] | 30 to 50 | 30 to 150 | – |
| N#Cc1ccc(N2Cc3ccc(CN4CCC(c5ccc6c(c5)CN(C5CCC(=O)NC5=O)C6=O)CC4)cc3C2=O)c(F)c1 (stereo not shown) [Compound 177] | 50 to 70 | < 10 | – |
| O=C1CCC(N2Cc3cc(C4(O)CCN(Cc5cccc(-c6nccs6)c5)CC4)ccc3C2=O)C(=O)N1 (stereo not shown) [Compound 281] | > 70 | < 10 | – |
| O=C1CCC(N2Cc3cc(C4(O)CCN(Cc5cccc(F)c5)CC4)ccc3C2=O)C(=O)N1 (stereo not shown) [Compound 257] | > 70 | < 10 | – |
| O=C1CCC(N2Cc3cc(C4(O)CCN(Cc5ccc6ncn(-c7ccccc7)c(=O)c6c5)CC4)ccc3C2=O)C(=O)N1 (stereo not shown) [Compound 234] | – | < 10 | +++ (“+++” is >70%) |
| O=C1CCC(N2Cc3cc(C4CCN(Cc5ccc6c(c5)C(=O)N(c5ccccc5O)C6)CC4)ccc3C2=O)C(=O)N1 (stereo not shown) [Compound 218] | > 70 | 10 to 30 | – |
| O=C1CCC(N2Cc3cc(C4CCN(Cc5ccnc(Nc6ccccc6)c5F)CC4)ccc3C2=O)C(=O)N1 (stereo not shown) [Compound 126] | 50 to 70 | 10 to 30 | – |
| O=C1CCC(N2Cc3cc(C4CCN(Cc5cnc(Nc6ccccc6)nc5)CC4)ccc3C2=O)C(=O)N1 (stereo not shown) [Compound 139] | 50 to 70 | 30 to 150 | – |
| O=C1CCC(N2Cc3cc(C4CCN(Cc5cccc(Nc6ncc(F)cn6)c5F)CC4)ccc3C2=O)C(=O)N1 (stereo not shown) [Compound 230] | 50 to 70 | 30 to 150 | – |
| O=C1CCC(N2Cc3cc(C4(O)CCN(Cc5ccccc5Cl)CC4)ccc3C2=O)C(=O)N1 (stereo not shown) [Compound 267] | > 70 | < 10 | – |
